# The source made the active and inactive calls. The calls are words filed in the database; no cut-off is given here.
# What was measured:
# [1] = Oral bioavailability in fasted beagle dog at 3 mg/kg; format: ADME, organism-based, Canis lupus familiaris; details: in vivo
# [2] = target: Sodium-dependent serotonin transporter (Homo sapiens, UniProt P31645); assay: Binding affinity to SERT
# [3] = AUC (0 to 24 hrs) in fasted Wistar rat at 5 mg/kg, po; format: ADME, organism-based; design: time < 24 hr, dose 5 mg/kg, route oral; details: plasma
# [4] = AUC (0 to 24 hrs) in fasted beagle dog at 3 mg/kg, po; format: ADME, organism-based, Canis lupus familiaris; design: time < 24 hr, dose 3 mg/kg, route oral; details: plasma
# [5] = target: T1, 5-hydroxytryptamine receptor 3A (Homo sapiens, UniProt P46098); assay: Binding affinity to 5HT3 receptor
# T1 sequence (P46098 whole entry): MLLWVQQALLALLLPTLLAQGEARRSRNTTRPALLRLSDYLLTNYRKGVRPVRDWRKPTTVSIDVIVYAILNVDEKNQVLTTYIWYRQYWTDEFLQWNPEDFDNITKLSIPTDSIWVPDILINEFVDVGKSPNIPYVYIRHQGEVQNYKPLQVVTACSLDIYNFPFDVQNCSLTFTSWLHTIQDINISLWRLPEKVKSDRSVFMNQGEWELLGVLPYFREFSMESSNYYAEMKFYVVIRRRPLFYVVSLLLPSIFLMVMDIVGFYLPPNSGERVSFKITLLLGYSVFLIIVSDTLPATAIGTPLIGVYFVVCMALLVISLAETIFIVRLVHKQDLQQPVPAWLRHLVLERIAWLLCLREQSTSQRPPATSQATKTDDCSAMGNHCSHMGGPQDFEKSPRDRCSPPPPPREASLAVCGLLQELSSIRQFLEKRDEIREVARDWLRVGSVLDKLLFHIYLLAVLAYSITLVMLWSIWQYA
# [6] = AUC (0 to 24 hrs) in Wistar rat at 5 mg/kg, iv; format: ADME, organism-based; design: time < 24 hr, dose 5 mg/kg, route intravenous; details: plasma
# [7] = Cmax in fasted beagle dog at 3 mg/kg, po; format: ADME, organism-based, Canis lupus familiaris; design: dose 3 mg/kg, route oral; details: in vivo
# [8] = target: Histamine H1 receptor (Homo sapiens, UniProt P35367); assay: Binding affinity to histamine H1 receptor
# [9] = Drug metabolism in human liver microsomes at 2.5 uM at 30 mins by LC-MS/MS analysis; format: ADME, Microsome; details: read-out: Drug metabolism
# [10] = target: D(2) dopamine receptor (Homo sapiens, UniProt P14416); assay: Binding affinity to dopamine D2 receptor
# [11] = target: T2, Alpha-1B adrenergic receptor (Homo sapiens, UniProt P35368); assay: Binding affinity to adrenergic alpha1B receptor
# T2 sequence (P35368 whole entry): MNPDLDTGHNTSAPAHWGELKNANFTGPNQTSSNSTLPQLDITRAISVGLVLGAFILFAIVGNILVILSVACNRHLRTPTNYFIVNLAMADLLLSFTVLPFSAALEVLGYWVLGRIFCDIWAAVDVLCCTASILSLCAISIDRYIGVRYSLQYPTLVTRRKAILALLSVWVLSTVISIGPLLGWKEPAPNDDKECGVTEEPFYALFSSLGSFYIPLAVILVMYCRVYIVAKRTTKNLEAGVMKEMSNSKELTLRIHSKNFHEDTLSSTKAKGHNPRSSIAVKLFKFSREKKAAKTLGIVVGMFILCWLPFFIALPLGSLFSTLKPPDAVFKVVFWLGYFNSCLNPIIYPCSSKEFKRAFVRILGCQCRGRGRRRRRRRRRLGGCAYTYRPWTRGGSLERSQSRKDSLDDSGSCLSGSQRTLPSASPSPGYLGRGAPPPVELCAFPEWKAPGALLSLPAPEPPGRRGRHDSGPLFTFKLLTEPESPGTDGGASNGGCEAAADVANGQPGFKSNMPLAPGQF
# [12] = Ratio of drug uptake in brain to plasma in Wistar rat at 10 mg/kg, po after 1 hr; format: ADME, organism-based; design: dose 10 mg/kg, route oral; details: read-out: BPR
# [13] = Tmax in fasted beagle dog at 3 mg/kg, po; format: ADME, organism-based, Canis lupus familiaris; design: dose 3 mg/kg, route oral; details: in vivo
# [14] = tested on: Rattus norvegicus; assay: Procognitive activity in Wistar rat assessed as reversal of time delay-induced memory deficit at 1 to 10 mg/kg, po by object recognition test; format: functional, organism-based
# [15] = target: 5-hydroxytryptamine receptor 6 (Homo sapiens) (UniProt P50406); assay: Antagonist activity at human recombinant 5HT6 receptor expressed in CHO cells assessed as inhibition of 5HT-induced luciferase activity after 4 hrs by reporter gene assay relative to control; format: functional, cell-based
# [16] = target: Cytochrome P450 2D6 (Homo sapiens, UniProt P10635); assay: Inhibition of CYP2D6 in human liver microsomes using dextromethorphan as substrate after 10 mins by LC-MS/MS analysis in presence of NADPH
# [17] = target: T3, 5-hydroxytryptamine receptor 2C (Homo sapiens, UniProt P28335); assay: Binding affinity to 5HT2C receptor
# T3 sequence (P28335 whole entry): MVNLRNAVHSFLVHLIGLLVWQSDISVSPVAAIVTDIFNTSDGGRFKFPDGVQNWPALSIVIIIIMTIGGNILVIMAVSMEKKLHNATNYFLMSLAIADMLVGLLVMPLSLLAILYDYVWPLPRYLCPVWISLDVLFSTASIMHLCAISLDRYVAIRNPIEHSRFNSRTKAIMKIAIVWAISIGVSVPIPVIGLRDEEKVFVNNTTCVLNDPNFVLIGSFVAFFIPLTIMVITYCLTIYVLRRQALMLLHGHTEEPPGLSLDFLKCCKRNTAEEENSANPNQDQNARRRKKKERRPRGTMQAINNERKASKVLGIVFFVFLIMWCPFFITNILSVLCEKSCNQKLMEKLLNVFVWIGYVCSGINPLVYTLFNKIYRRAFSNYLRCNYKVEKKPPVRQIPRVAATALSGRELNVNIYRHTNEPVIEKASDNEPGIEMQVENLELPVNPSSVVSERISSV
# [18] = target: Cytochrome P450 3A4 (Homo sapiens, UniProt P08684); assay: Inhibition of CYP3A4 in human liver microsomes using midazolam as substrate after 5 mins by LC-MS/MS analysis in presence of NADPH
# [19] = Cmax in fasted Wistar rat at 5 mg/kg, po; format: ADME, organism-based; design: dose 5 mg/kg, route oral; details: in vivo
# [20] = Clearance in Wistar rat at 5 mg/kg, iv; format: ADME, organism-based; design: dose 5 mg/kg, route intravenous; details: in vivo
# [21] = Tmax in fasted Wistar rat at 5 mg/kg, po; format: ADME, organism-based; design: dose 5 mg/kg, route oral; details: in vivo
# [22] = target: Sodium-dependent dopamine transporter (Homo sapiens, UniProt Q01959); assay: Binding affinity to dopamine transporter
# [23] = AUC (0 to 24 hrs) in beagle dog at 1 mg/kg, iv; format: ADME, organism-based, Canis lupus familiaris; design: time < 24 hr, dose 1 mg/kg, route intravenous; details: plasma
# [24] = Apparent volume of distribution in Wistar rat at 5 mg/kg, iv; format: ADME, organism-based; design: dose 5 mg/kg, route intravenous; details: in vivo, read-out: Vz
# [25] = target: 5-hydroxytryptamine receptor 2A (Homo sapiens, UniProt P28223); assay: Binding affinity to 5HT2A receptor
# Sequence of 5-hydroxytryptamine receptor 2A (P28223 whole entry): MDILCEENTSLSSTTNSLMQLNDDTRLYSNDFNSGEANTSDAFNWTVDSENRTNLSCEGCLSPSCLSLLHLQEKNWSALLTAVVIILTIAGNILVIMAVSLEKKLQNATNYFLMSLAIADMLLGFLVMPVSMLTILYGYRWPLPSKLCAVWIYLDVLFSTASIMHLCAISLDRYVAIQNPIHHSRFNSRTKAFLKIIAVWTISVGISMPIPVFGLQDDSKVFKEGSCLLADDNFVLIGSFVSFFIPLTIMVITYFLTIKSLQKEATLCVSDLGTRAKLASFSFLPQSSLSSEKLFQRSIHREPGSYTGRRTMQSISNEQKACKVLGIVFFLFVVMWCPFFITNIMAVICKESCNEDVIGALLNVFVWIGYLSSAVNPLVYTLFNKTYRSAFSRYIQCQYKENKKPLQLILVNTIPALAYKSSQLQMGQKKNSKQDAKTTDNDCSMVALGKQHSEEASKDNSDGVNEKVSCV
# Sequence of Sodium-dependent serotonin transporter (P31645 whole entry): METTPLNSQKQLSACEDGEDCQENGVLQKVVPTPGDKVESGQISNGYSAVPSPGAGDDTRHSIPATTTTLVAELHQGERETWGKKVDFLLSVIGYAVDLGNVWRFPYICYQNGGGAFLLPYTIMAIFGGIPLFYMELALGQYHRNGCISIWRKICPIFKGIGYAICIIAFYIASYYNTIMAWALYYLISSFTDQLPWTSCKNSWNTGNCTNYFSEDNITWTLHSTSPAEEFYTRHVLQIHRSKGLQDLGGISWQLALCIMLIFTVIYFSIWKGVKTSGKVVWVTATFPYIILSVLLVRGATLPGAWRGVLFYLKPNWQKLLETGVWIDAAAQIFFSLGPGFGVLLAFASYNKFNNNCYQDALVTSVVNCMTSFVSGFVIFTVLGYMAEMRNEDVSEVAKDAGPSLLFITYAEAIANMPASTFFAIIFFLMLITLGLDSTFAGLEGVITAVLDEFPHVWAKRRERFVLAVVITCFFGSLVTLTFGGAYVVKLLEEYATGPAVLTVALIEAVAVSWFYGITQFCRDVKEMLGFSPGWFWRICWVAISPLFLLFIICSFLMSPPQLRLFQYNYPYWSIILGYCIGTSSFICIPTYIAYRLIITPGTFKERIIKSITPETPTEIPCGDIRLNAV
# Sequence of Histamine H1 receptor (P35367 whole entry): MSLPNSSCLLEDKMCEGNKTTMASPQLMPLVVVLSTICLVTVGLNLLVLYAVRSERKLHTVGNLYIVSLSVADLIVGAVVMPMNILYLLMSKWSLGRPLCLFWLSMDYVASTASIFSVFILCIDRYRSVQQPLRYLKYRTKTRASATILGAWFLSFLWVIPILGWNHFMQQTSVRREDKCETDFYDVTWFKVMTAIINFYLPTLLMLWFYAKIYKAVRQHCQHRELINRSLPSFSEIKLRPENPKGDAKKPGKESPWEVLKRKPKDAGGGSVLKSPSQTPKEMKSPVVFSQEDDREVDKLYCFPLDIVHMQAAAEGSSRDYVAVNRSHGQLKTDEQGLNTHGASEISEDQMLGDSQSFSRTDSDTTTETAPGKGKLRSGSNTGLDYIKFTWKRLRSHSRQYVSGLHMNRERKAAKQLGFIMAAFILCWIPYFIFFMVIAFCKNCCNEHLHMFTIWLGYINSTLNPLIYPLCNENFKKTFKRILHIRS
# Sequence of Cytochrome P450 3A4 (P08684 whole entry): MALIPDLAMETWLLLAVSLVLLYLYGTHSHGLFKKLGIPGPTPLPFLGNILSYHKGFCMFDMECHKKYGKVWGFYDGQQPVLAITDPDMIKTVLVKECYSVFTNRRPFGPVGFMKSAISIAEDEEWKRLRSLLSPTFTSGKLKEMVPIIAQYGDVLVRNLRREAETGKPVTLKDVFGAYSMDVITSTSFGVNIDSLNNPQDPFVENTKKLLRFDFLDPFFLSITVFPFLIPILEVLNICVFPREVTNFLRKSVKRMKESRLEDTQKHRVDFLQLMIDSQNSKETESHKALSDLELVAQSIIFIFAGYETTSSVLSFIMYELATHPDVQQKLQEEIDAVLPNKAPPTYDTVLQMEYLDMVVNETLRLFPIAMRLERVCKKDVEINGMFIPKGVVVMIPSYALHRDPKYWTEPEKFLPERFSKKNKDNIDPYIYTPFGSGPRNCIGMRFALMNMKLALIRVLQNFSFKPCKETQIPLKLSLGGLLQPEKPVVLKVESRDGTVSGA
# Sequence of Sodium-dependent dopamine transporter (Q01959 whole entry): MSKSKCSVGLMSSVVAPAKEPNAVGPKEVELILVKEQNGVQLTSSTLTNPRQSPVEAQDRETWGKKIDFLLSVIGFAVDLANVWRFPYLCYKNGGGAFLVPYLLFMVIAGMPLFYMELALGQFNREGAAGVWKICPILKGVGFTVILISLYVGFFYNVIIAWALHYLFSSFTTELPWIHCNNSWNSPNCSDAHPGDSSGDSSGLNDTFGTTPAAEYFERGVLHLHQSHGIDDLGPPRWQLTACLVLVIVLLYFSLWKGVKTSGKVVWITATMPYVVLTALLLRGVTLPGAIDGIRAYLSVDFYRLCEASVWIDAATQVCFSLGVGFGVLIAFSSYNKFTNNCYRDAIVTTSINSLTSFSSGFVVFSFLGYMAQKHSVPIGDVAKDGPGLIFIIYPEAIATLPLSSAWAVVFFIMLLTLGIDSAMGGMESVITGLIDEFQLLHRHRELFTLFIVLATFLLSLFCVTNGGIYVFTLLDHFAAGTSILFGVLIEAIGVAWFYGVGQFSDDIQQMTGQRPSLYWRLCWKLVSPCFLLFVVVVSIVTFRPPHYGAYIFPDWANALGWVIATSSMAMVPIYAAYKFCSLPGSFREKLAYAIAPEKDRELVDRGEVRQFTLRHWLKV
# Sequence of Cytochrome P450 2D6 (P10635 whole entry): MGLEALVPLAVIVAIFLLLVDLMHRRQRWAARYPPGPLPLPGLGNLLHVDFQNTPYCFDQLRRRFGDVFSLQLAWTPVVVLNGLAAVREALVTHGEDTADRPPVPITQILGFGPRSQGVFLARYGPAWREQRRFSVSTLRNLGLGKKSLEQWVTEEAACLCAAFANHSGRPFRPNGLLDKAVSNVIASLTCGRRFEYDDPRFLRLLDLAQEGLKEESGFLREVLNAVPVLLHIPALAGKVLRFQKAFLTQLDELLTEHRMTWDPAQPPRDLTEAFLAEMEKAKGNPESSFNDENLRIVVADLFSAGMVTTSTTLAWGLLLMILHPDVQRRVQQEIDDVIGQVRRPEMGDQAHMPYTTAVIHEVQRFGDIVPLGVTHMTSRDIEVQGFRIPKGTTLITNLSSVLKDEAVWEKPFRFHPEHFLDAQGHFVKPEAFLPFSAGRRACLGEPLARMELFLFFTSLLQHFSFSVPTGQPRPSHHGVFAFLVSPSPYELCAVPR
# Sequence of D(2) dopamine receptor (P14416 whole entry): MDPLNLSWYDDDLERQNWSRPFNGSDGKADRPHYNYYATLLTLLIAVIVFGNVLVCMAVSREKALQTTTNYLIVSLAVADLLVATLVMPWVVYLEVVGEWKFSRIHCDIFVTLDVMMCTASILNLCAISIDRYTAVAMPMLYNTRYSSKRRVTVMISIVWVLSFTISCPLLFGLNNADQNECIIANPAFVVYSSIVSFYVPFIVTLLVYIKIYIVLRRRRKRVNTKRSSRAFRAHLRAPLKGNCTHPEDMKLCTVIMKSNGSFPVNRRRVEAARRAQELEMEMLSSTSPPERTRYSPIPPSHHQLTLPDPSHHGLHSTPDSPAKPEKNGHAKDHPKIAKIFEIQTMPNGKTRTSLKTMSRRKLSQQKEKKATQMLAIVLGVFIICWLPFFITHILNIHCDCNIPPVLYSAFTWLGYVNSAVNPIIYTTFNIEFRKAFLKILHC
# Sequence of 5-hydroxytryptamine receptor 6 (Homo sapiens) (P50406 whole entry): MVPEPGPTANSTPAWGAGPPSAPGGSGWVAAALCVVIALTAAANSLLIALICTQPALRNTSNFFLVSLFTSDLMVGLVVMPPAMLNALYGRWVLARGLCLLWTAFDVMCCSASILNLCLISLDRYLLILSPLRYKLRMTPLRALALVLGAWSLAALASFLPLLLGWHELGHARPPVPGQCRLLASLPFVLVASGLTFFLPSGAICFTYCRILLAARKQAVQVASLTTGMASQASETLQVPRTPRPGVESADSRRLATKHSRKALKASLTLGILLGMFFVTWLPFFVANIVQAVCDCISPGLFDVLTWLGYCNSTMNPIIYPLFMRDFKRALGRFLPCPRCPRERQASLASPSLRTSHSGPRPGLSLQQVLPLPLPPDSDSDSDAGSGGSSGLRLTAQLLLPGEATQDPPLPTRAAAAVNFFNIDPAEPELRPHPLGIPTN
smiles,measurement,setting,value
COc1ccc(S(=O)(=O)n2cc(C)c3cc(Cl)cnc32)cc1NC1CCN(C)CC1,bioavailability,[1],92%
same,Ki,[2],> 10 µM
same,AUC(0-t) at 24 h,[3],389 ng·h/mL
same,AUC(0-t) at 24 h,[4],3630 ng·h/mL
same,IC50,[5],> 10 µM
same,AUC(0-t) at 24 h,[6],1310 ng·h/mL
same,Cmax,[7],549 ng/mL
same,Ki,[8],586 nM
same,"metabolised at 0.5 h, 2.5 µM",[9],72%
same,Ki,[10],1810 nM
same,Ki,[11],3.79 µM
same,Kp at 1 h,[12],0.9
same,Tmax,[13],1.7 h
same,Activity,[14],Active
same,Imax,[15],100%
same,IC50,[16],> 45 µM
same,Ki,[17],2240 nM
same,IC50,[18],10 µM
same,Cmax,[19],156 ng/mL
same,clearance,[20],64 mL/min/kg
same,Tmax,[21],1 h
same,Ki,[22],3.22 µM
same,AUC(0-t) at 24 h,[23],1400 ng·h/mL
same,Vd,[24],10 L/kg
same,Ki,[25],2370 nM
